Here are results for ten compounds from ChEMBL document CHEMBL1201862, “PubChem BioAssay data set” (2004).

Some test systems named below: U-251; UACC-257; NCI-H226; MCF7; DU-145; SR; SNB-19; TK-10; NCI-H23; SN12C; SK-MEL-2; PC-3; NCI-H460; LOX IMVI; IGROV-1; CCRF-CEM; SK-MEL-5; HCT-15; NCI-H522; COLO 205.
Holding throughout (experiment): NCI tumour cell line growth inhibition, 48 h

Molecules are shown by their SMILES.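 Five concentrations, 48 hours, 96-well plates. Here, GI50 denotes the concentration required for 50% inhibition of growth.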 Active and inactive are the calls of the source. Cut-off read from the data, not from the text of the source: active = GI50 up to about 1.1 µM and inactive = higher. Where only a bound is given, the exact number is not on record here.

Turning to `COc1ccc(Cn2c3c(cc(OC(C)=O)c2=O)Cc2ccccc2-3)cc1`, the GI50 in the experiment on U-251 was 8.65 µM (inactive); in the experiment with UACC-257, 2.28 µM (inactive); with NCI-H226, 14.3 µM (inactive); in the experiment on MCF7, 13.7 µM (inactive); in the experiment on DU-145, 12.2 µM (inactive); with SR, 2.14 µM (inactive). Besides, the GI50 with SNB-19 was 12.9 µM (inactive); with TK-10, 13.1 µM (inactive); in the experiment with NCI-H23, 10.5 µM (inactive); in the experiment with SN12C, 7.55 µM (inactive); in the experiment with SK-MEL-2 it was 4.61 µM (inactive); in the experiment on PC-3, 8.41 µM (inactive). Also, the GI50 in the experiment on NCI-H460 was 3.97 µM (inactive); with LOX IMVI, 6.12 µM (inactive); in the experiment with IGROV-1, 7.82 µM (inactive); in the experiment with CCRF-CEM, 2 µM (inactive); in the experiment with SK-MEL-5, 12.2 µM (inactive); in the experiment on HCT-15, 2.55 µM. Further, the GI50 in the experiment on NCI-H522 is 7.01 µM (inactive); with COLO 205 it was 20.6 µM (inactive).

For the compound `CCc1ccc2nccc(NCCCN(C)C)c2c1[N+](=O)[O-]`, the GI50 in the experiment with U-251 was > 100 µM (inactive); in the experiment on UACC-257, 32.3 µM (inactive); in the experiment with NCI-H226 it was > 100 µM (inactive); with MCF7 it was 72.9 µM (inactive); with DU-145, > 100 µM (inactive); in the experiment on SR it was > 100 µM (inactive). For the same compound, the GI50 with SNB-19 was > 100 µM (inactive); in the experiment on TK-10, > 100 µM (inactive); with NCI-H23, > 100 µM (inactive); with SN12C, 60.4 µM (inactive); in the experiment with SK-MEL-2, > 100 µM (inactive); in the experiment on PC-3, 70 µM (inactive). Besides, the GI50 with NCI-H460 was > 100 µM (inactive); with LOX IMVI, 62.7 µM (inactive); in the experiment on IGROV-1, > 100 µM (inactive); with CCRF-CEM, > 100 µM (inactive); with SK-MEL-5 it was 44.3 µM (inactive); in the experiment with HCT-15 it was above 10 µM. For the same compound, the GI50 in the experiment on NCI-H522 was 74.6 µM (inactive); with COLO 205, 30.7 µM (inactive).

As to `N#Cc1ccccc1OCCOc1ccccc1C#N`, the GI50 in the experiment with U-251 was 61 µM (inactive); in the experiment on UACC-257, > 100 µM (inactive); with NCI-H226, > 100 µM (inactive); with MCF7, > 100 µM (inactive); in the experiment with DU-145, > 100 µM (inactive); with SR, > 100 µM (inactive). Besides, the GI50 in the experiment with SNB-19, in the experiment with TK-10, in the experiment with NCI-H23, in the experiment on SN12C, with SK-MEL-2 and with PC-3 was > 100 µM (inactive) in each case. For the same compound, the GI50 was > 100 µM (inactive) in the experiment on NCI-H460; > 100 µM (inactive) in the experiment with LOX IMVI; > 100 µM (inactive) in the experiment with IGROV-1; > 100 µM (inactive) in the experiment on CCRF-CEM; > 100 µM (inactive) with SK-MEL-5; above 100 µM in the experiment with HCT-15. Also, the GI50 in the experiment with NCI-H522 and with COLO 205 was > 100 µM (inactive) each time.

Consider `CSc1nc(C)cc(N(C)c2ccccc2)n1`, for which the GI50 in the experiment with U-251 was 31.4 µM (inactive); in the experiment on UACC-257, 31.6 µM (inactive); with NCI-H226 it was 34.5 µM (inactive); in the experiment on MCF7, 24.9 µM (inactive); with DU-145 it was 58.6 µM (inactive); in the experiment with SR, 10.7 µM (inactive). The GI50 in the experiment with SNB-19 is 85.5 µM (inactive); with TK-10, 33.5 µM (inactive); in the experiment on NCI-H23, 27.9 µM (inactive); in the experiment with SN12C it was 41.8 µM (inactive); in the experiment on SK-MEL-2 it was 40 µM (inactive); in the experiment with PC-3 it was 55.5 µM (inactive). Moreover, the GI50 is 40.7 µM (inactive) with NCI-H460; 21.1 µM (inactive) in the experiment with LOX IMVI; 36.9 µM (inactive) in the experiment on IGROV-1; 38 µM (inactive) in the experiment on CCRF-CEM; 25.6 µM (inactive) with SK-MEL-5; 38.4 µM with HCT-15. In addition, the GI50 with NCI-H522 was 65.6 µM (inactive); in the experiment with COLO 205 it was 34.8 µM (inactive).

For `N#CC(c1ccccc1)N1CCCN(C(C#N)c2ccccc2)C1c1ccccc1O` (stereo not given), the GI50 in the experiment with U-251, in the experiment with UACC-257, with NCI-H226, in the experiment with MCF7, with DU-145 and in the experiment with SR was > 100 µM (inactive) each time. The GI50 in the experiment with SNB-19, in the experiment with TK-10, with NCI-H23, with SN12C, in the experiment on SK-MEL-2 and in the experiment with PC-3 was > 100 µM (inactive) throughout. The GI50 is > 100 µM (inactive) in the experiment with NCI-H460; > 100 µM (inactive) in the experiment on LOX IMVI; > 100 µM (inactive) with IGROV-1; 40.1 µM (inactive) in the experiment on CCRF-CEM; > 100 µM (inactive) in the experiment with SK-MEL-5; above 100 µM in the experiment with HCT-15. Besides, the GI50 with NCI-H522 and with COLO 205 was > 100 µM (inactive) in each case.

For `CC1=NN(C(=O)CC(=O)Nc2ccc(C)cc2)C(=O)C1/N=N\c1ccc(S(=O)(=O)c2ccc(/N=N/C3C(=O)N(C(=O)CC(=O)Nc4ccc(C)cc4)N=C3C)cc2)cc1` (stereo not given), the GI50 with U-251 is 52.1 µM (inactive); in the experiment on UACC-257, > 100 µM (inactive); with NCI-H226 it was > 100 µM (inactive); in the experiment with MCF7, > 100 µM (inactive); with DU-145 it was > 100 µM (inactive); in the experiment with SR it was 27.5 µM (inactive). Further, the GI50 in the experiment on SNB-19 was > 100 µM (inactive); with TK-10 it was > 100 µM (inactive); in the experiment with NCI-H23, > 100 µM (inactive); with SN12C, 50.1 µM (inactive); in the experiment on SK-MEL-2, 58.6 µM (inactive); in the experiment on PC-3, 72.4 µM (inactive). Also, the GI50 is 38.5 µM (inactive) with NCI-H460; 16.2 µM (inactive) in the experiment on LOX IMVI; 28.4 µM (inactive) in the experiment on IGROV-1; 9.4 µM (inactive) with CCRF-CEM; 58.9 µM (inactive) with SK-MEL-5; 44.6 µM in the experiment with HCT-15. The GI50 was 23.3 µM (inactive) in the experiment with NCI-H522 and > 100 µM (inactive) with COLO 205.

As to `N#Cc1c(-c2ccccc2)cc(Nc2ccc(Cl)cc2)n2c1nc1ccccc12`, the GI50 in the experiment on U-251 is 2.49 µM (inactive); in the experiment with UACC-257 it was 1.91 µM (inactive); with NCI-H226 it was 4.45 µM (inactive); in the experiment with MCF7, 3.48 µM (inactive); in the experiment on DU-145, 3.45 µM (inactive); in the experiment on SR, 2.73 µM (inactive). Moreover, the GI50 was 2.93 µM (inactive) in the experiment on SNB-19; 4.45 µM (inactive) with TK-10; 2.64 µM (inactive) in the experiment on NCI-H23; 2.28 µM (inactive) in the experiment on SN12C; 2.99 µM (inactive) in the experiment on SK-MEL-2; 2.56 µM (inactive) in the experiment on PC-3. For the same compound, the GI50 in the experiment on NCI-H460 was 1.67 µM (inactive); with LOX IMVI it was 3.75 µM (inactive); in the experiment on IGROV-1, 1.36 µM (inactive); in the experiment with CCRF-CEM it was 4.66 µM (inactive); in the experiment with SK-MEL-5, 1.46 µM (inactive); in the experiment with HCT-15, 3.37 µM. Further, the GI50 in the experiment with NCI-H522 is 1.91 µM (inactive); with COLO 205, 1.74 µM (inactive).

For the compound `CC[C@]1(O)CC(OC2CC(N(C)C)C(O)C(C)O2)c2c(cc3c(c2O)C(=O)c2c(O)cccc2C3=O)[C@@H]1C(=O)OC` (stereo not given in full), the GI50 was 0.151 µM (active) in the experiment with U-251; 0.347 µM (active) in the experiment on UACC-257; 0.243 µM (active) with NCI-H226; 0.292 µM (active) in the experiment with MCF7; 0.675 µM (active) in the experiment on DU-145; 0.0538 µM (active) with SR. In addition, the GI50 in the experiment on SNB-19 was 0.328 µM (active); with TK-10, 0.472 µM (active); with NCI-H23, 0.272 µM (active); with SN12C, 0.178 µM (active); in the experiment with SK-MEL-2, 0.381 µM (active); in the experiment on PC-3, 0.214 µM (active). Also, the GI50 in the experiment with NCI-H460 was 0.045 µM (active); in the experiment with LOX IMVI, 0.0859 µM (active); with IGROV-1, 0.119 µM (active); in the experiment on CCRF-CEM, 0.117 µM (active); in the experiment with SK-MEL-5, 0.192 µM (active); with HCT-15, 0.244 µM. The GI50 in the experiment on NCI-H522 was 0.108 µM (active); with COLO 205, 0.0881 µM (active).

Take `COC1=CCC2=C(CCN(C(=O)C3CC3)C2Cc2ccc(OC)c(O)c2)C1` (stereo not given): the GI50 in the experiment with U-251 was 86.7 µM (inactive); in the experiment on UACC-257 it was 47.9 µM (inactive); with NCI-H226, 89.3 µM (inactive); with MCF7, 33.2 µM (inactive); with DU-145, > 100 µM (inactive); in the experiment on SR it was 4.8 µM (inactive). Besides, the GI50 in the experiment with SNB-19 was > 100 µM (inactive); with TK-10 it was 67.1 µM (inactive); in the experiment with NCI-H23, 26.7 µM (inactive); in the experiment on SN12C, 49.3 µM (inactive); in the experiment with SK-MEL-2, 38.3 µM (inactive); in the experiment on PC-3, 35.6 µM (inactive). For the same compound, the GI50 is 42 µM (inactive) in the experiment with NCI-H460; 86.7 µM (inactive) in the experiment on LOX IMVI; 52 µM (inactive) in the experiment on IGROV-1; 34 µM (inactive) in the experiment on CCRF-CEM; 28.6 µM (inactive) with SK-MEL-5; 22.1 µM with HCT-15. For the same compound, the figures for the GI50 in the experiment on NCI-H522 and in the experiment with COLO 205 were 28.8 µM (inactive) and 51.5 µM (inactive), respectively.

For `CS(=O)(=O)CS(=O)(=O)OCCCl`, the GI50 in the experiment with U-251 was 72.3 µM (inactive); in the experiment on UACC-257, 169 µM (inactive); in the experiment on NCI-H226, 177 µM (inactive); with MCF7 it was 229 µM (inactive); in the experiment on DU-145, 199 µM (inactive); in the experiment with SR, 15.8 µM (inactive). The GI50 in the experiment on SNB-19 was 96.4 µM (inactive); with TK-10, 465 µM (inactive); in the experiment on NCI-H23, 143 µM (inactive); in the experiment with SN12C, 188 µM (inactive); in the experiment on SK-MEL-2 it was 304 µM (inactive); in the experiment on PC-3, 348 µM (inactive). For the same compound, the GI50 in the experiment with NCI-H460 was 83.6 µM (inactive); in the experiment with LOX IMVI it was 37.8 µM (inactive); with IGROV-1 it was 252 µM (inactive); with CCRF-CEM it was 47 µM (inactive); in the experiment with SK-MEL-5, 211 µM (inactive); in the experiment with HCT-15 it was 209 µM. For the same compound, the GI50 with NCI-H522 is 206 µM (inactive); with COLO 205 it was 276 µM (inactive).
